Holding throughout (type): cell-based
Assay [1] has as its system PC12 cells. As to the kind of experiment: PC12 cell viability, CellTitreGlo Assay, 72 hrs. The following applies: Rattus norvegicus, PC-12. How it is done:
(§1) Table 2. Biological data of selected compounds. For IC50 determination. PC3 and PC12 cells were treated with increasing concentrations of the indicated compounds for 72 hrs and cell viability assessed using CellTitreGlo Assay (Promega). For MYC and ATF4 protein level determination. PC3 cells were treated with the indicated compounds for 24 hr sand cell lysates processed for western blot with MYC and ATF4 antibodies using Actin as a control. Quantification analyses were performed by Biorad ChemiDoc Imager and Bio-Rad Image Lab software.

Assay [2] concerns PC3 cells. As to the kind of experiment: PC3 cell viability, CellTitreGlo Assay, 72 hrs. The conditions noted are these: Homo sapiens, PC-3. Here is the method:
as §1

Assay [3] addresses T1, MYC (Homo sapiens, UniProt P01106).
T1 construct: endogenous in cells; host or cells: PC3 cells
As to the kind of experiment: MYC protein level in PC3 cells by western blot, 24 hr. The following applies: PC-3, 24 h, PC3, 24 h, Actin control, read-out: Relative MYC protein at 10 μM (%, PC3 24 h). Here is the method: as §1
On the technique in general: Immunoblotting shows a protein as a band on a membrane.

In assay [4] the test system is ATF4. As to the kind of experiment: ATF4 protein level in PC3 cells by western blot, 24 hr. The conditions noted are these: Homo sapiens, PC-3, PC3, 24 h, Actin control, read-out: Relative ATF4 protein at 10 μM (fold change, PC3 24 h). Here is the method: as §1

T1 sequence (P01106 whole entry): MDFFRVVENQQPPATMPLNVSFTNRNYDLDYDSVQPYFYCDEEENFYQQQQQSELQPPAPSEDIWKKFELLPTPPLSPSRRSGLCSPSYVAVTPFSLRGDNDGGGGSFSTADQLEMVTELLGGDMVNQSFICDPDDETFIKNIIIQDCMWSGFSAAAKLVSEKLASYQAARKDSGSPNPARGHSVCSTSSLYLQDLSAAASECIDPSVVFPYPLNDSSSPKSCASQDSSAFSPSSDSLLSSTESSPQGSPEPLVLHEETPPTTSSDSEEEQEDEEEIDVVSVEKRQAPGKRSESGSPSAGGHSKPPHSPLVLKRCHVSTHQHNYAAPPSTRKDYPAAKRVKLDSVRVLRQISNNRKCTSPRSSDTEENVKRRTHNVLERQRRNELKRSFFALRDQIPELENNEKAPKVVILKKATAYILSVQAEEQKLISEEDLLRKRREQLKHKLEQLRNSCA

The IC50 is the concentration needed to halve the response being measured. Lower therefore signals inhibition by little substance. As for `Cn1nc(C(F)(F)F)c(Cl)c1-c1ccc(COc2ccc(Cl)cc2Cl)c(-c2ccc(Cl)c(C(F)(F)F)c2)c1O` [NUCC-0227064], the 50% inhibitory concentration (IC50) in assay [1] was 8.27 µM; in assay [2], 0.399 µM. Further, the remaining activity at 10 µM in assay [3] turned out to be 42%. For the same compound, the fold induction at 10 µM in assay [4] is 12.7.
On the same counts, the results for `CN(C)c1c(Cl)cc(-c2cc(C(F)(F)F)nn2C)c(O)c1-c1ccc(Cl)c(C(F)(F)F)c1` [NUCC-0226530] are 9.4 µM, 12 µM, 35.5% and 3.
On the same counts, the results for `CNc1c(Cl)cc(-c2cc(C(F)(F)F)nn2C)c(O)c1-c1ccc(Cl)c(C(F)(F)F)c1` [NUCC-0226529] are 19.4 µM, 3.1 µM, 41.3% and 2.4.
On the same counts, the results for `Cn1cncc1-c1ccc(OCc2ccc(Cl)cc2)c(-c2ccc(Cl)c(C(F)(F)F)c2)c1O` [NUCC-0226660] are 9.22 µM, over 50 µM, 94.4% and 2.5.
`CN1C(=O)CCC(N2C(=O)c3cccc(NCCOCCOCCNC(=O)CCOCCCN(C(=O)c4ccc(Cl)c(C(F)(F)F)c4)c4ccc(-c5cc(C(F)(F)F)nn5C)c(O)c4)c3C2=O)C1=O` (stereo not shown) [NUCC-0226292]: the IC50 in assay [2] was 10.1 µM. Moreover, the remaining activity at 10 µM in assay [3] is 65.1%. Moreover, the fold induction at 10 µM in assay [4] is 1.1.
For `Cc1ccc([C@H](C)Oc2ccc(-c3cc(C(F)(F)F)nn3C)c(O)c2-c2ccc(Cl)c(C(F)(F)F)c2)cc1` [NUCC-0226435] the same measures were 5.4 µM, 47.4% and 4.7.
On the same counts, the results for `Cn1nc(C(F)(F)F)cc1-c1ccc(N(CCCOCCC(=O)NCCOCCOCCNc2cccc3c2C(=O)N(C2CCC(=O)NC2=O)C3=O)C(=O)c2ccc(Cl)c(C(F)(F)F)c2)cc1O` (stereo not shown) [NUCC-0226231] are 8.5 µM, 53.6% and 14.3.
On the same counts, the results for `Cn1nc(C(F)(F)F)cc1-c1ccc(N(CCCOCCC(=O)NCCOCCNc2cccc3c2C(=O)N(C2CCC(=O)NC2=O)C3=O)C(=O)c2ccc(Cl)c(C(F)(F)F)c2)cc1O` (stereo not shown) [NUCC-0226288] are 6 µM, 54.2% and 6.6.
As for `Cn1nc(C(F)(F)F)cc1-c1ccc(OCc2ccc(Cl)cc2)c(-c2ccc(Cl)c(Cl)c2)c1O` [NUCC-0226496], the IC50 in assay [2] was 5.3 µM. For the same compound, the remaining activity at 10 µM in assay [3] worked out at 25.4%. The fold induction at 10 µM in assay [4] worked out at 10.3.
For `Cn1nc(C(F)(F)F)cc1-c1ccc(Cc2ccc(Cl)cc2)c(-c2ccc(Cl)c(C(F)(F)F)c2)c1O` [NUCC-0226566] the same measures were 3.88 µM, 43.7% and 10.5.
For `Cn1nc(C(F)(F)F)cc1-c1ccc(OCCCCCOCCOCCOc2cccc3c2C(=O)N(C2CCC(=O)NC2=O)C3=O)c(-c2ccc(Cl)c(C(F)(F)F)c2)c1O` (stereo not shown) [NUCC-0226224] the same measures were 10.1 µM, 84.2% and 8.1.
In the case of `Cn1nc(C(F)(F)F)cc1-c1ccc(CCc2ccc(Cl)cc2)c(-c2ccc(Cl)c(C(F)(F)F)c2)c1O` [NUCC-0226574], half-maximal inhibition in assay [2] (IC50) was put at 3.59 µM. In addition, the remaining activity at 10 µM in assay [3] is 43.7%. In addition, the fold induction at 10 µM in assay [4] was determined as 12.
The compound `C[C@@H](Oc1ccc(-c2cc(C(F)(F)F)nn2C)c(O)c1-c1ccc(Cl)c(C(F)(F)F)c1)c1ccccc1` [NUCC-0226433] displayed an IC50 in assay [2] of 4 µM. For the same compound, the remaining activity at 10 µM in assay [3] was 35%. Besides, the fold induction at 10 µM in assay [4] is 10.6.
For `C[C@H](Oc1ccc(-c2cc(C(F)(F)F)nn2C)c(O)c1-c1ccc(Cl)c(C(F)(F)F)c1)c1ccccc1` [NUCC-0226434] the same measures were 4.3 µM, 20% and 9.4.
For `CC(C)Cc1ccc(C(C)Oc2ccc(-c3cc(C(F)(F)F)cn3C)c(O)c2-c2ccc(Cl)c(C(F)(F)F)c2)cc1` (stereo not shown) [NUCC-0226438] the same measures were 5.3 µM, 52.3% and 3.7.
For `Cn1nc(C(F)(F)F)cc1-c1ccc(N)c(-c2ccc(Cl)c(C(F)(F)F)c2)c1O` [NUCC-0226520] the same measures were 12.7 µM, 67.5% and 1.1.
For the compound `Cc1ncsc1-c1ccc(CNC(=O)[C@@H]2C[C@@H](O)CN2C(=O)[C@@H](NC(=O)CCCCCCCCNC(=O)CCOCCCN(C(=O)c2ccc(Cl)c(C(F)(F)F)c2)c2ccc(-c3cc(C(F)(F)F)nn3C)c(O)c2)C(C)(C)C)cc1` [NUCC-0226226], in assay [2], 5.1 µM corresponded to half-maximal inhibition (IC50). Besides, the remaining activity at 10 µM in assay [3] was 81.9%. Moreover, the fold induction at 10 µM in assay [4] turned out to be 10.6.
For the compound `Cn1nc(C(N)=O)cc1-c1cc(Cl)c(COc2ccc(Cl)cc2)c(-c2ccc(Cl)c(C(F)(F)F)c2)c1O` [NUCC-0227066], the IC50 in assay [2] came out at 8.53 µM. Further, the remaining activity at 10 µM in assay [3] is 84.2%. Further, the fold induction at 10 µM in assay [4] is 3.9.
For `CNc1ccc(-c2cc(C(F)(F)F)nn2C)c(O)c1-c1ccc(Cl)c(C(F)(F)F)c1` [NUCC-0226527] the same measures were 6.2 µM, 50.8% and 1.2.
The compound `Cn1nc(C(F)(F)F)cc1-c1ccc(OCc2ccc(Cl)cc2)c(-c2cccc(F)c2)c1O` [NUCC-0226498] came in with an IC50 in assay [2] of 40.9 µM. Besides, in assay [3], the remaining activity at 10 µM worked out at 67.8%. In addition, in assay [4], the fold induction at 10 µM stood at 4.8.
For `Cn1nc(C(F)(F)F)cc1-c1ccc(N(CCCOCCC(=O)NCCOCCOCCNc2ccc3c(c2)C(=O)N(C2CCC(=O)NC2=O)C3=O)C(=O)c2ccc(Cl)c(C(F)(F)F)c2)cc1O` (stereo not shown) [NUCC-0226293] the same measures were 4.7 µM, 18.4% and 3.6.
On to `Cn1nc(C(F)(F)F)cc1-c1ccc(NC(c2ccccc2)c2ccccc2)c(-c2ccc(Cl)c(C(F)(F)F)c2)c1O` [NUCC-0226502], for which 14.1 µM corresponded to half-maximal inhibition in assay [2] (IC50). The remaining activity at 10 µM in assay [3] amounted to 122%. Moreover, the fold induction at 10 µM in assay [4] was found to be 1.4.
For `Cc1ncsc1-c1ccc(CNC(=O)[C@@H]2C[C@@H](O)CN2C(=O)[C@@H](NC(=O)CCCCCCCCCCNC(=O)CCOCCCN(C(=O)c2ccc(Cl)c(C(F)(F)F)c2)c2ccc(-c3cc(C(F)(F)F)nn3C)c(O)c2)C(C)(C)C)cc1` [NUCC-0226227] the same measures were 22.3 µM, 102% and 10.2.
On the same counts, the results for `Cc1ncsc1-c1ccc(CNC(=O)[C@@H]2C[C@@H](O)CC2C(=O)[C@@H](NC(=O)COCCNC(=O)CCOCCCN(C(=O)c2ccc(Cl)c(C(F)(F)F)c2)c2ccc(-c3cc(C(F)(F)F)nn3C)c(O)c2)C(C)(C)C)cc1` (stereo partly shown) [NUCC-0226228] are 6 µM, 38.1% and 23.1.
For `Cn1nc(C(F)(F)F)cc1-c1ccc(N(CCCOCCC(=O)NCCOCCOCCOCCNc2cccc3c2C(=O)N(C2CCC(=O)NC2=O)C3=O)C(=O)c2ccc(Cl)c(C(F)(F)F)c2)cc1O` (stereo not shown) [NUCC-0226289] the same measures were 7.4 µM, 120% and 7.
